Test results published in publication doi:10.1101/049825v1, “Htm1p-Pdi1p is a folding sensitive mannosidase that marks N-glycoproteins for ER-associated protein degradation” (biorxiv, 2016).

Target: T1, Htm1p-Pdi1p (Saccharomyces cerevisiae, UniProt P38888)
T1 construct: gene MNL1; full-length HTM1 coding region with C-terminal 3xFLAG-HDEL tag (released by TEV), chromosomal TDH3 promoter, strain yJW1820; co-purified with endogenous Pdi1p, near 1:1; with Protein disulfide-isomerase
T1 sequence (P38888 21-796): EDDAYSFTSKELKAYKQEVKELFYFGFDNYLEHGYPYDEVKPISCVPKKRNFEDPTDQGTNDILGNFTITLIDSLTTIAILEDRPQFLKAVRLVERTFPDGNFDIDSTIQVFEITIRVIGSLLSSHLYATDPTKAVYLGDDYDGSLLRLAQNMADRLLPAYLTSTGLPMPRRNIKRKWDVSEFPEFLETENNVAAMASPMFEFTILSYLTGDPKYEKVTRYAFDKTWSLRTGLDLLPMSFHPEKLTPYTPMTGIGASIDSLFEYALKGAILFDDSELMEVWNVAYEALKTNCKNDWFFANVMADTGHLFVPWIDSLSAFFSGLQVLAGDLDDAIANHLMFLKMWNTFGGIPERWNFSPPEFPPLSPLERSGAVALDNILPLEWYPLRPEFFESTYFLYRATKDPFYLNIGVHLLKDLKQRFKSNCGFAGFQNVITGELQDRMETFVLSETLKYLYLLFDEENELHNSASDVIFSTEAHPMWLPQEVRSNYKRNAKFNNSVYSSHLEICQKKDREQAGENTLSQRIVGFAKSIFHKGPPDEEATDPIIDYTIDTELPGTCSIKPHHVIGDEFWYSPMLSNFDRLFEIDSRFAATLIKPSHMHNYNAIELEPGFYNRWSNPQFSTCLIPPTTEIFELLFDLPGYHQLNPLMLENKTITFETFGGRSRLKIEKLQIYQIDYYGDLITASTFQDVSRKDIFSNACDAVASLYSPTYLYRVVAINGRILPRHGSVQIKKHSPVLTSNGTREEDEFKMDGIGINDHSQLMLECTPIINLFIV
T1 sequence (P17967 29-522 partner): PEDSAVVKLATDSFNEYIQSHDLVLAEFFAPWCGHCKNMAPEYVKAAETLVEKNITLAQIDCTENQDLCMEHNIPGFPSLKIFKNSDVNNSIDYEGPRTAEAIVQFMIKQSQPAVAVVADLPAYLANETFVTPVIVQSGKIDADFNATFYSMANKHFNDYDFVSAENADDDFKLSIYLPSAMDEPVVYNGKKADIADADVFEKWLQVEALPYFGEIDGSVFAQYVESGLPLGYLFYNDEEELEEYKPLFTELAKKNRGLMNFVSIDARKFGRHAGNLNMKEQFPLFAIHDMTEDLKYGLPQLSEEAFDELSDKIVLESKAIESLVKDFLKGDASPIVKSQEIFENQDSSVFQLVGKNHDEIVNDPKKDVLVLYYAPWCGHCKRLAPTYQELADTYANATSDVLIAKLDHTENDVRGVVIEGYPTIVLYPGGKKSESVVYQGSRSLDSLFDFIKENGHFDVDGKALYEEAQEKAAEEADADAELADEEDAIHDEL
Assay: MALDI-TOF MS glycan profiling of CPY* (Man8 to Man7 conversion)
Format: biochemical
Conditions: glycoprotein substrate CPY* 2 μM, enzyme 0.1 μM, 2 mM CaCl2, pH 7.0, 30°C, 20 h; inhibitor concentration not given

## OC[C@H]1NC[C@@H](O)[C@@H](O)[C@@H]1O [1-deoxymannojirimycin]
  MALDI-TOF MS glycan profiling of CPY* (Man8 to Man7 conversion): Both chemicals inhibited the generation of Man7 on CPY*
